The values below come from patent US20170029531A1, “INHIBITION OF LACTATE DEHYDROGENASE 5 (LDH-5) BINDING, INCORPORATION, INTERNALIZATION AND/OR ENDOCYTOSIS TO IMMUNE CELLS” (Seattle Children's Hospital (dba Seattle Children's …, priority 2014, published 2017).

In one experiment the test system is primary human NK cells. The experiment can be described thus: NKG2D expression and CD107a degranulation of primary human NK cells after incubation with LDH or lactate. It is filed as cell-based. To be noted: LDH 50 ug/mL or lactate 20 mM; 12 hour (NKG2D, NKp46) or 6 hour after IL-2 (CD107a). The source says:
FIG. 2. Biochemical purification of tumor-derived Lactate Dehydrogenase, expression in glioma cell lines and verification of LDH-mediated induction of NKG2D ligands on monocytes. (Panel A) Protein purification strategy. […] of U87 glioblastoma cell line supernatant were subjected to ammonium sulfate precipitation. Active fractions were passed over a phenyl Sepharose column and active fractions were then subjected to size exclusion (Superdex 200), followed by ion exchange (MonoS) before Mass Spectroscopy (MS) analysis. (Panel B) Following separation by chromatography, fractions were dialyzed into PBS and cultured with MHD (healthy monocytes) for 18 hours. Whole cell mRNA was reverse transcribed, and induction of MICB and ULBP-1 was analyzed relative to media alone controls. […] (Panel C) mRNA isolated from PBMC of healthy donors, 293T cells (as negative controls), and U87, U251, and SF767 glioma cell lines were analyzed for expression of LDHA and LDHB by qPCR. (Panel D) A 1:10 dilution of fresh, unfrozen glioblastoma cell line supernatants was analyzed for total LDH enzymatic activity and expressed as OD 495 nm. […] Eighteen hours later, mRNA was isolated and analyzed for MICA, MICB, and ULBP-1 by qPCR. […] Eighteen hours later, mRNA was isolated and analyzed for MICA, MICB and ULBP-1 by qPCR. […] Eighteen hours later, MICB (black bars) and ULBP-1 (gray bars) were measured by qPCR. […]

Another experiment deals with T cells and NK cells. The experiment can be described thus: Internalization of LDH-A488 by T cells and NK cells of human PBMC. Type of experiment: cell-based. The note with it: 10 ug/mL LDH-A488, 30 min, 37° C., IL-2 cultured PBMC. The protocol: FIG. 33. Human PBMC were isolated from healthy human blood via Ficoll gradient. PBMC were cultured for 24 h in RPMI+10% FBS supplemented with 1000 U/mL IL-2. Experimental wells were pulsed with 10 ug/mL LDH-A488 for 30 min (control wells received no LDH) at 37° C. Cells were treated for 2 min with 0.5M acetic acid+150 mM NaCl (pH 2.5), followed by 4 subsequent washes in RPMI+10% FBS. Cells were stained with antibodies directed against CD4, CD8, CD28, and CD95 to delineate T cell subsets (CD28+CD95−, Naïve, Na; CD28+CD95+, central memory, CM; CD28−CD95+, effector memory, EM) or against CD3, CD56, and CD16 to delineate NK cell subsets (CD3-CD56hiCD16−; CD3−CD56dimCD16−; CD3−CD56dimCD16+). Frequency and MFI of A488 was corrected against control (no LDH pulse). Shown are 10 data points: 2 patients on 2 different days (in duplicate), and 1 patient on one day in duplicate.
Human PBMC were isolated from healthy human blood via Ficoll gradient. PBMC were cultured for 24 h in RPMI+10% FBS supplemented with 1000 U/mL IL-2. Experimental wells were pulsed with 10 ug/mL LDH-A488 for 30 min (control wells received no LDH) at 37° C. Cells were treated for 2 min with 0.5M acetic acid+150 mM NaCl (pH 2.5), followed by 4 subsequent washes in RPMI+10% FBS. […]

In the case of “LDH5: purified native lactate dehydrogenase isoenzyme 5, alpha only tetramer; fluorescently labeled in uptake tests”, the “NK cell NKG2D expression or degranulation” value in the experiment on primary human NK cells is recorded as “neither lactate nor LDH-5 alone directly impacted”. Besides, in the experiment on T cells and NK cells, the “Internalization of LDH5 by T cells and NK cells” value was “internalize”.
